For 9 compounds, IC50 results are on record in patent US11168073B2, “3,3-difluoroallylamines or salts thereof and pharmaceutical compositions comprising the same” (YUHAN CORPORATION, priority 2018, dated 2021).

Molecules are shown by their SMILES. Structures can show the parent of a compound that is named as a salt. Where two headings read alike, the source gives them in different places.

Assay type in all cases: biochemical
Assay [1] deals with T1, recombinant human VAP-1 (Homo sapiens, UniProt Q16853).
T1 construct: purchased R&D systems
T1 sequence (Q16853 1-763): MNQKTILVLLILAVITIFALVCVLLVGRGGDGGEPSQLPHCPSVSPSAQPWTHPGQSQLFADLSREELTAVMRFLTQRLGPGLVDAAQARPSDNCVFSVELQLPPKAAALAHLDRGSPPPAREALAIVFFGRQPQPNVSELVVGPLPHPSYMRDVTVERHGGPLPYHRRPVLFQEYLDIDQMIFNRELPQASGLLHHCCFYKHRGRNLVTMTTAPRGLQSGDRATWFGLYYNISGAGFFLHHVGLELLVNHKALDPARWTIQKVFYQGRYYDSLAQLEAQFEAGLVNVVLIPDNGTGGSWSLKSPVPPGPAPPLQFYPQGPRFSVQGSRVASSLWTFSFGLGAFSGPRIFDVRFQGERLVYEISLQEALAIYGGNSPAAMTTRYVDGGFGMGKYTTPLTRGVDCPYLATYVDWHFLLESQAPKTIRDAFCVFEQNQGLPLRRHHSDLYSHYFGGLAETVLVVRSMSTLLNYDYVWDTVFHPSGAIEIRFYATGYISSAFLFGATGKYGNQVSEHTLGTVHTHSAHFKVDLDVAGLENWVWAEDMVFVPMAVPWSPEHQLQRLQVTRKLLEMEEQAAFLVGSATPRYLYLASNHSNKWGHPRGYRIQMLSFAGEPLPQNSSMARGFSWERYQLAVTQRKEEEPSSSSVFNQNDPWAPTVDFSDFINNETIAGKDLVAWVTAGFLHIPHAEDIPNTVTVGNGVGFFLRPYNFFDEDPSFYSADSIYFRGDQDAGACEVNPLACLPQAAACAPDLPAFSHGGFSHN
Nature of the assay: Activity evaluation on recombinant human VAP-1 (Amplex Red/HRP-coupled hydrogen peroxide assay, benzylamine substrate). The following applies: read-out: Inhibitory Activity (IC50, nM) human VAP-1. The method, then: (§1) The compounds according to the present technology were evaluated in terms of activity on recombinant human VAP-1 (R&D systems) by measuring the level of hydrogen peroxide in horseradish peroxidase (HRP)-coupled reaction using Amplex Red Hydrogen Peroxide Assay Kit (Molecular Probes, Invitrogen, USA). The experiment was carried out at room temperature using benzylamine as a substrate. In the HRP-coupled reaction, hydrogen peroxide oxidation of 10-acetyl-3,7-dihydroxyphenoxazine (Amplex Red reagent) produces resorufin, which is a highly fluorescent compound. Briefly, the test compound was dissolved in dimethyl sulfoxide (DMSO) at a concentration of 20 mM. The dose-response assessment was made by 1:3 serial dilution in DMSO, thereby creating a 8 point curve. The concentration of the upper part was controlled according to the efficacy of the compounds, followed by the dilution with a reaction buffer solution to obtain a final DMSO concentration of less than 1%. To each well of a 96 black well plate, human VAP-1 purified in 50 mM sodium phosphate buffer solution (pH7.4) was added. The test compounds dissolved in DMSO were incubated with the human VAP-1 enzymes at 37° C. for 30 minutes. After 30-minute incubation, each well was added with a reaction mixture containing 200 uM Amplex Red reagent prepared from 50 mM sodium phosphate buffer solution (pH 7.4), 1 mM benzylamine, and 1 U/mL HRP. Fluorescence intensity was measured at several time points during 1-2 hours using a microplate reader (Flexstation3, Molecular Devices) under the wavelength condition exciting at 544 nm and reading the emission at 590 nm. The inhibitory effect of the compounds was measured as a decrease (%) in the signal rate as compared to the control group without any inhibitor (only diluted DMSO). Data was fixed to a logistic model with four variables and IC50 value was calculated using GraphPad Prism program.

The target of assay [2] is T2, recombinant human MAO-A (monoamine oxidase-A) (Homo sapiens, UniProt P21397).
T2 construct: purchased Sigma-Aldrich
T2 sequence (P21397 1-527): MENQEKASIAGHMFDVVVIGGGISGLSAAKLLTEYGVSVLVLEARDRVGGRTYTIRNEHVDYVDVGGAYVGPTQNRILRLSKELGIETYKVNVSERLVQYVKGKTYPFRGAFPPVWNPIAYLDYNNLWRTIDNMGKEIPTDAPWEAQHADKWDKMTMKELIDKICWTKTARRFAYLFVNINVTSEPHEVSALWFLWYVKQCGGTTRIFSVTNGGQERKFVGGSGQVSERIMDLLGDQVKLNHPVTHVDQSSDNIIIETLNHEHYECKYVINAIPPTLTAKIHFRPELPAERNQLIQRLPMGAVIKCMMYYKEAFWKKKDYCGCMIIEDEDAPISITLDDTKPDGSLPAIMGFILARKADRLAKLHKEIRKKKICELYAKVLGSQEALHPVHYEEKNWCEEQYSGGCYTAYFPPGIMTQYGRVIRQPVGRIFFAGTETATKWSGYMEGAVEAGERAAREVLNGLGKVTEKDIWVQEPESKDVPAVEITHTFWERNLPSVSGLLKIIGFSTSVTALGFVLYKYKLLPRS
Nature of the assay: Activity evaluation on recombinant human MAO-A (Amplex Red/HRP-coupled assay, 0.5 mM tyramine substrate). The following applies: read-out: Inhibitory Activity (IC50, nM) MAO-A. The method, then: as §1
(§2) In addition, the compounds according to the present technology were evaluated in terms of activity on a recombinant human MAO-A (monoamine oxidase-A, Sigma-Aldrich) and a recombinant human MAO-B (monoamine oxidase-B, Sigma-Aldrich) by using as substrates, 0.5 mM tyramine and 1 mM benzylamine, respectively, with a method similar to the activity evaluation method for recombinant human VAP-1. The compounds according to the present technology were also evaluated in terms of activity on a recombinant human DAO (diamine oxidase, R&D systems) by using as a substrate 1 mM putrescine with a method similar to the activity evaluation method for recombinant human VAP-1.

Assay [3] deals with T3, recombinant human MAO-B (monoamine oxidase-B) (Homo sapiens, UniProt P27338).
T3 construct: purchased Sigma-Aldrich
T3 sequence (P27338 1-520): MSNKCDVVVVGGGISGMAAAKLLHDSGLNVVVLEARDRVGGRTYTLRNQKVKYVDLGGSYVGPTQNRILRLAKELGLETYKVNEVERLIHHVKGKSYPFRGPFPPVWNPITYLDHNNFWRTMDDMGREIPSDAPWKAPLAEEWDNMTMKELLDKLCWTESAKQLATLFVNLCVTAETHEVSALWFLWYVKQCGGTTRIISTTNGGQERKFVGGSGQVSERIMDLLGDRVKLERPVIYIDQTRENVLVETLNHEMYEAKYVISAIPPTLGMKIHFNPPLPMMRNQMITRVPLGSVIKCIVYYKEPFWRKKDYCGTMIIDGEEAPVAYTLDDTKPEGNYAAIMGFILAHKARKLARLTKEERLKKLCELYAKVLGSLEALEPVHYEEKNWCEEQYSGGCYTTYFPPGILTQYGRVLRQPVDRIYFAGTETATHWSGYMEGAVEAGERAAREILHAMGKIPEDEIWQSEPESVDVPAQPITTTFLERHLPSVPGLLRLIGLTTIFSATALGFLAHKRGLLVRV
Nature of the assay: Activity evaluation on recombinant human MAO-B (Amplex Red/HRP-coupled assay, 1 mM benzylamine substrate). The following applies: read-out: Inhibitory Activity (IC50, nM) MAO-B. The method, then: as §1, §2

Assay [4] concerns the target T4, recombinant human DAO (diamine oxidase) (Homo sapiens, UniProt P19801).
T4 construct: purchased R&D systems
T4 sequence (P19801 20-751): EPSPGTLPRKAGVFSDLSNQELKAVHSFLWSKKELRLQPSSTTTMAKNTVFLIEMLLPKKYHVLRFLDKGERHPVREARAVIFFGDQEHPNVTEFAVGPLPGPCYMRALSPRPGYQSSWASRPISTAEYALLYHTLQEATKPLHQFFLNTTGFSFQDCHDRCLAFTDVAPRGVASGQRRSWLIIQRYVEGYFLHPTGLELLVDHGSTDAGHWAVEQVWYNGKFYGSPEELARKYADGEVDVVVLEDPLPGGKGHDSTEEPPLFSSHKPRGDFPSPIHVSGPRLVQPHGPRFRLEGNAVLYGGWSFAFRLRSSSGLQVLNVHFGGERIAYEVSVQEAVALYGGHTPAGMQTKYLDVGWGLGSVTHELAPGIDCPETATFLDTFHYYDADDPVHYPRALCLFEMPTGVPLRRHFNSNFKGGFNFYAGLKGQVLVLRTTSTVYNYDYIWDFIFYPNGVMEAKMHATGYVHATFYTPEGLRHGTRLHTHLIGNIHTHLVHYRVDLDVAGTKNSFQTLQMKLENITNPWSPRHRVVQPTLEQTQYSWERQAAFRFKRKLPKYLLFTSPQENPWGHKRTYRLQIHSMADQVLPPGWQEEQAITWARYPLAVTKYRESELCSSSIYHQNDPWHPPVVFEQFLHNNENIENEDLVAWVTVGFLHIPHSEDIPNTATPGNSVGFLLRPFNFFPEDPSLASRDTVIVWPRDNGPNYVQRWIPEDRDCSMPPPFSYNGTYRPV
Nature of the assay: Activity evaluation on recombinant human DAO (Amplex Red/HRP-coupled assay, 1 mM putrescine substrate). The following applies: read-out: Inhibitory Activity (IC50, nM) DAO. Here is the method: as §1, §2

The mark [5] stands for this setting: recombinant human VAP-1, 30 min preincubation at 37° C., 1 mM benzylamine.
Where [6] appears, read: recombinant human VAP-1, benzylamine substrate.

Regarding `Cc1cc(-c2cnc(-n3cnn(CC(CN)=C(F)F)c3=O)c(F)c2)cc2c1NC(=O)CC2` [Example 86, 6-[6-[1-[2-(aminomethyl)-3,3-difluoro-allyl]-5-oxo-1,2,4-triazol-4-yl]-5-fluoro-3-pyridyl]-8-methyl-3,4-dihydro-1H-quinolin-2-one Trifluoroacetate], the IC50 – broadly, the concentration needed to halve the response being measured – in assay [1] (setting [5]) is 0.1 nM; in assay [2] (0.5 mM tyramine), over 100000 nM; in assay [3] (1 mM benzylamine), 640 nM; in assay [4] (1 mM putrescine) it was 33 nM.
On the same counts, the results for `NCC(Cn1ncn(Cc2ccc(-c3ccc4c(c3)NC(=O)CO4)s2)c1=O)=C(F)F` [Example 141, 6-[5-[[1-[2-(aminomethyl)-3,3-difluoro-allyl]-5-oxo-1,2,4-triazol-4-yl]methyl]-2-thienyl]-4H-1,4-benzoxazin-3-one Trifluoroacetate] are 0.6 nM, 8100 nM, 20000 nM and 16000 nM.
`NCC(Cn1ncn(-c2ccc(F)cc2)c1=O)=C(F)F` [Example 1, 2-[2-(aminomethyl)-3,3-difluoro-allyl]-4-(4-fluorophenyl)-1,2,4-triazol-3-one Trifluoroacetate]: the IC50 in assay [1] (setting [5]) is 2 nM; in assay [2] (0.5 mM tyramine), over 100000 nM; in assay [3] (1 mM benzylamine) it was 39000 nM; in assay [4] (1 mM putrescine) it was over 10000 nM.
Consider `Cc1cc(-c2ccc3sc(Cn4cnn(CC(CN)=C(F)F)c4=O)cc3c2)cc2c1NC(=O)CC2` [Example 210, 6-[2-[[1-[2-(aminomethyl)-3,3-difluoro-allyl]-5-oxo-1,2,4-triazol-4-yl]methyl]benzothiophen-5-yl]-8-methyl-3,4-dihydro-1H-quinolin-2-one Trifluoroacetate], for which the IC50 in assay [1] (setting [6]) is 1.5 nM; in assay [2] (0.5 mM tyramine substrate), over 100000 nM; in assay [3] (1 mM benzylamine substrate), over 100000 nM; in assay [4] (1 mM putrescine substrate), 1230 nM.
As to `CN(C)c1ccc(-c2ccccc2Cn2cnn(CC(CN)=C(F)F)c2=O)cn1` [Example 281, 2-[2-(aminomethyl)-3,3-difluoro-allyl]-4-[[2-[6-(dimethylamino)-3-pyridyl]phenyl]methyl]-1,2,4-triazol-3-one Trifluoroacetate], the IC50 in assay [1] (setting [6]) is 307 nM; in assay [2] (0.5 mM tyramine substrate) it was over 100000 nM; in assay [3] (1 mM benzylamine substrate), over 100000 nM; in assay [4] (1 mM putrescine substrate) it was 4860 nM.
For the compound `NCC(Cn1ncn(Cc2ccccc2-c2ccc(N3CCNCC3)cc2)c1=O)=C(F)F` [Example 280, 2-[2-(aminomethyl)-3,3-difluoro-allyl]-4-[[2-(4-piperazin-1-ylphenyl)phenyl]methyl]-1,2,4-triazol-3-one Ditrifluoroacetate], the IC50 in assay [1] (setting [6]) is 2380 nM; in assay [2] (0.5 mM tyramine substrate) it was over 100000 nM; in assay [3] (1 mM benzylamine substrate), over 100000 nM; in assay [4] (1 mM putrescine substrate) it was over 100000 nM.
Turning to `CCn1cc(-c2cccc(-c3cnc(-n4cnn(CC(CN)=C(F)F)c4=O)c(C)c3)c2)cn1` [Example 291, 2-[2-(aminomethyl)-3,3-difluoro-allyl]-4-[5-[3-(1-ethylpyrazol-4-yl)phenyl]-3-methyl-2-pyridyl]-1,2,4-triazol-3-one Trifluoroacetate], the IC50 in assay [1] (setting [6]) was 0.6 nM; in assay [2] (0.5 mM tyramine substrate) it was over 100000 nM; in assay [3] (1 mM benzylamine substrate), 3450 nM; in assay [4] (1 mM putrescine substrate) it was 6160 nM.
For `COc1ccc(-c2ccc(Cn3cnn(CC(CN)=C(F)F)c3=O)s2)cn1` [Example 113, 2-[2-(aminomethyl)-3,3-difluoro-allyl]-4-[[5-(6-methoxy-3-pyridyl)-2-thienyl]methyl]-1,2,4-triazol-3-one Trifluoroacetate], the IC50 in assay [1] (setting [5]) is 0.6 nM; in assay [2] (0.5 mM tyramine), over 100000 nM; in assay [3] (1 mM benzylamine), 2700 nM; in assay [4] (1 mM putrescine), 19000 nM.
For `NCC(Cn1ncn(-c2cccc(-c3ccc4c(c3)NC(=O)OC4)n2)c1=O)=C(F)F` [Example 219, 7-[6-[1-[2-(aminomethyl)-3,3-difluoro-allyl]-5-oxo-1,2,4-triazol-4-yl]-2-pyridyl]-1,4-dihydro-3,1-benzoxazin-2-one Trifluoroacetate], the IC50 is 0.2 nM in assay [1] (setting [6]), over 100000 nM in assay [2] (0.5 mM tyramine substrate), 68500 nM in assay [3] (1 mM benzylamine substrate) and 47 nM in assay [4] (1 mM putrescine substrate).
